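All cell lines were grown in 96-well plates and treated with compound for 48 hours. TGI is the concentration that stops growth completely.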
Experiments:
Experiment in all cases: NCI-60 cell line screen, 48 h
SN12C renal = system: SN12C renal
HOP-62 NSCLC = system: HOP-62 NSCLC
SK-MEL-2 melanoma = system: SK-MEL-2 melanoma
OVCAR-5 ovarian = system: OVCAR-5 ovarian
NCI-H23 lung = system: NCI-H23 lung
CAKI-1 renal = system: CAKI-1 renal
M19-MEL melanoma = system: M19-MEL melanoma
HT29 colon = system: HT29 colon
LOX IMVI melanoma = system: LOX IMVI melanoma
K-562 leukemia = system: K-562 leukemia
SK-OV-3 ovarian = system: SK-OV-3 ovarian
SNB-78 CNS = system: SNB-78 CNS
LXFL 529 NSCLC = system: LXFL 529 NSCLC
TK-10 renal = system: TK-10 renal
SR leukemia = system: SR leukemia
ACHN renal = system: ACHN renal
KM12 colon = system: KM12 colon
SF-295 CNS = system: SF-295 CNS
DMS 273 small cell lung = system: DMS 273 small cell lung
OVCAR-4 ovarian = system: OVCAR-4 ovarian
SF-539 CNS = system: SF-539 CNS
NCI-H226 lung = system: NCI-H226 lung
HOP-18 NSCLC = system: HOP-18 NSCLC
DMS 114 small cell lung = system: DMS 114 small cell lung
HOP-92 NSCLC = system: HOP-92 NSCLC
A498 renal = system: A498 renal
MALME-3M melanoma = system: MALME-3M melanoma
SF-268 CNS = system: SF-268 CNS
CCRF-CEM leukemia = system: CCRF-CEM leukemia
OVCAR-8 ovarian = system: OVCAR-8 ovarian
786-0 renal = system: 786-0 renal
DLD-1 colon = system: DLD-1 colon
A549 NSCLC = system: A549 NSCLC
XF 498 CNS = system: XF 498 CNS
RXF 393 renal = system: RXF 393 renal
RXF-631 renal = system: RXF-631 renal
HL-60(TB) leukemia = system: HL-60(TB) leukemia
SNB-19 CNS = system: SNB-19 CNS
SK-MEL-5 melanoma = system: SK-MEL-5 melanoma
UACC-62 melanoma = system: UACC-62 melanoma
UO-31 renal = system: UO-31 renal
COLO 205 colon = system: COLO 205 colon
SK-MEL-28 melanoma = system: SK-MEL-28 melanoma
IGROV1 ovarian = system: IGROV1 ovarian
EKVX NSCLC = system: EKVX NSCLC
NCI-H460 lung = system: NCI-H460 lung
MOLT-4 leukemia = system: MOLT-4 leukemia
UACC-257 melanoma = system: UACC-257 melanoma
SW-620 colon = system: SW-620 colon

Question: How did the TGI (SN12C renal) turn out when `N#Cc1ccccc1Nc1ccccc1S` was run?
Answer: 97.1 µM

Question: And the TGI (HOP-62 NSCLC)?
Answer: > 100 µM

Question: What about the TGI (SK-MEL-2 melanoma) of the same compound?
Answer: > 100 µM

Question: And the TGI (OVCAR-5 ovarian)?
Answer: 97.8 µM

Question: What about the TGI (NCI-H23 lung) of the same compound?
Answer: > 100 µM

Question: And the TGI (CAKI-1 renal)?
Answer: > 100 µM

Question: What about the TGI (M19-MEL melanoma) of the same compound?
Answer: > 100 µM

Question: And the TGI (HT29 colon)?
Answer: > 100 µM

Question: What about the TGI (LOX IMVI melanoma) of the same compound?
Answer: 33.6 µM

Question: And the TGI (K-562 leukemia)?
Answer: > 100 µM

Question: And the TGI (SK-OV-3 ovarian)?
Answer: > 100 µM

Question: And the TGI (SNB-78 CNS)?
Answer: > 100 µM

Question: What about the TGI (LXFL 529 NSCLC) of the same compound?
Answer: 59.3 µM

Question: And the TGI (TK-10 renal)?
Answer: > 100 µM

Question: What about the TGI (SR leukemia) of the same compound?
Answer: > 100 µM

Question: And the TGI (ACHN renal)?
Answer: > 100 µM

Question: And the TGI (KM12 colon)?
Answer: > 100 µM

Question: And the TGI (SF-295 CNS)?
Answer: 65.4 µM

Question: What about the TGI (DMS 273 small cell lung) of the same compound?
Answer: > 100 µM

Question: And the TGI (OVCAR-4 ovarian)?
Answer: > 100 µM

Question: And the TGI (SF-539 CNS)?
Answer: 35.8 µM

Question: What about the TGI (NCI-H226 lung) of the same compound?
Answer: 43.9 µM

Question: And the TGI (HOP-18 NSCLC)?
Answer: > 100 µM

Question: And the TGI (DMS 114 small cell lung)?
Answer: 42.8 µM

Question: What about the TGI (HOP-92 NSCLC) of the same compound?
Answer: 80.3 µM

Question: What about the TGI (A498 renal) of the same compound?
Answer: > 100 µM

Question: And the TGI (MALME-3M melanoma)?
Answer: 80.3 µM

Question: What about the TGI (SF-268 CNS) of the same compound?
Answer: > 100 µM

Question: What about the TGI (CCRF-CEM leukemia) of the same compound?
Answer: 77.4 µM

Question: What about the TGI (OVCAR-8 ovarian) of the same compound?
Answer: 94 µM

Question: And the TGI (786-0 renal)?
Answer: 78.3 µM

Question: What about the TGI (DLD-1 colon) of the same compound?
Answer: > 100 µM

Question: And the TGI (A549 NSCLC)?
Answer: > 100 µM

Question: And the TGI (XF 498 CNS)?
Answer: 40 µM

Question: What about the TGI (RXF 393 renal) of the same compound?
Answer: 53 µM

Question: And the TGI (RXF-631 renal)?
Answer: > 100 µM

Question: What about the TGI (HL-60(TB) leukemia) of the same compound?
Answer: > 100 µM

Question: What about the TGI (SNB-19 CNS) of the same compound?
Answer: 60.5 µM

Question: What about the TGI (SK-MEL-5 melanoma) of the same compound?
Answer: 44.8 µM

Question: What about the TGI (UACC-62 melanoma) of the same compound?
Answer: 37.8 µM

Question: And the TGI (UO-31 renal)?
Answer: 72.4 µM

Question: What about the TGI (COLO 205 colon) of the same compound?
Answer: > 100 µM

Question: What about the TGI (SK-MEL-28 melanoma) of the same compound?
Answer: > 100 µM

Question: And the TGI (IGROV1 ovarian)?
Answer: 71.2 µM

Question: What about the TGI (EKVX NSCLC) of the same compound?
Answer: > 100 µM

Question: What about the TGI (NCI-H460 lung) of the same compound?
Answer: > 100 µM

Question: And the TGI (MOLT-4 leukemia)?
Answer: 33.1 µM

Question: And the TGI (UACC-257 melanoma)?
Answer: > 100 µM

Question: And the TGI (SW-620 colon)?
Answer: 47.1 µM

From PubChem BioAssay (NCI)
